Test system: SEM cells
Assay: cell viability relative to DMSO control; higher = less cytotoxic
Conditions: 48 h
Method in brief: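 Before seeding, each leukemia line was adapted for at least four passages in each medium. NOMO1 or SEM cells (500 cells/well) and P12-Ichikawa cells (1000 cells/well) went into 1536-well plates at 5 μl, then received library compounds in DMSO by pin dosing across 11 threefold concentrations, 47 μM to 0.79 nM. Readout was CellTiter-Glo One luminescence after 48 h at 37°C, and viability is given as a per-plate percentage of DMSO wells, with cell-free wells as background.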

[1] = HPLM + 10% dialyzed FBS, 0.000781 µM
[2] = HPLM + 10% dialyzed FBS, 0.00234 µM
[3] = HPLM + 10% dialyzed FBS, 0.00702 µM
[4] = HPLM + 10% dialyzed FBS, 0.0211 µM
[5] = HPLM + 10% dialyzed FBS, 0.0632 µM
[6] = HPLM + 10% dialyzed FBS, 0.19 µM
[7] = HPLM + 10% dialyzed FBS, 0.569 µM
[8] = HPLM + 10% dialyzed FBS, 1.71 µM
[9] = HPLM + 10% dialyzed FBS, 5.12 µM
[10] = HPLM + 10% dialyzed FBS, 15.4 µM
[11] = HPLM + 10% dialyzed FBS, 46.1 µM
[12] = RPMI 5 mM glucose + 10% FBS, 0.000781 µM
[13] = RPMI 5 mM glucose + 10% FBS, 0.00234 µM
[14] = RPMI 5 mM glucose + 10% FBS, 0.00702 µM
[15] = RPMI 5 mM glucose + 10% FBS, 0.0211 µM
[16] = RPMI 5 mM glucose + 10% FBS, 0.0632 µM
[17] = RPMI 5 mM glucose + 10% FBS, 0.19 µM
[18] = RPMI 5 mM glucose + 10% FBS, 0.569 µM
[19] = RPMI 5 mM glucose + 10% FBS, 1.71 µM
[20] = RPMI 5 mM glucose + 10% FBS, 5.12 µM
[21] = RPMI 5 mM glucose + 10% FBS, 15.4 µM
[22] = RPMI 5 mM glucose + 10% FBS, 46.1 µM
[23] = RPMI 5 mM glucose + 10% dialyzed FBS, 0.000781 µM
[24] = RPMI 5 mM glucose + 10% dialyzed FBS, 0.00234 µM
[25] = RPMI 5 mM glucose + 10% dialyzed FBS, 0.00702 µM
[26] = RPMI 5 mM glucose + 10% dialyzed FBS, 0.0211 µM
[27] = RPMI 5 mM glucose + 10% dialyzed FBS, 0.0632 µM
[28] = RPMI 5 mM glucose + 10% dialyzed FBS, 0.19 µM
[29] = RPMI 5 mM glucose + 10% dialyzed FBS, 0.569 µM
[30] = RPMI 5 mM glucose + 10% dialyzed FBS, 1.71 µM
[31] = RPMI 5 mM glucose + 10% dialyzed FBS, 5.12 µM
[32] = RPMI 5 mM glucose + 10% dialyzed FBS, 15.4 µM
[33] = RPMI 5 mM glucose + 10% dialyzed FBS, 46.1 µM

Compound | cell viability [1] [%] | cell viability [2] [%] | cell viability [3] [%] | cell viability [4] [%] | cell viability [5] [%] | cell viability [6] [%] | cell viability [7] [%] | cell viability [8] [%] | cell viability [9] [%] | cell viability [10] [%] | cell viability [11] [%] | cell viability [12] [%] | cell viability [13] [%] | cell viability [14] [%] | cell viability [15] [%] | cell viability [16] [%] | cell viability [17] [%] | cell viability [18] [%] | cell viability [19] [%] | cell viability [20] [%] | cell viability [21] [%] | cell viability [22] [%] | cell viability [23] [%] | cell viability [24] [%] | cell viability [25] [%] | cell viability [26] [%] | cell viability [27] [%] | cell viability [28] [%] | cell viability [29] [%] | cell viability [30] [%] | cell viability [31] [%] | cell viability [32] [%] | cell viability [33] [%]
O=C1[C@H](Cc2ccc(O)cc2)N2C(=O)CCN(C(=O)NCc3ccccc3)[C@H]2CN1Cc1cccc2ccccc12 | 51.6 | 86.6 | 103 | 93.6 | 77 | 74.3 | 77.4 | 62.8 | 64.8 | 12.3 | 51.3 | 64.9 | 108 | 99.7 | 98.1 | 76.7 | 93.6 | 86.2 | 83.9 | 78.6 | 15.2 | 65.6 | 55.1 | 101 | 94.7 | 95 | 83 | 93.3 | 74.1 | 73.8 | 73.3 | 15.3 | 63.2
Cc1c(C)n(Cc2ccc(-c3ccccc3C(=O)O)cc2)c2ccc(C(=O)N[C@@H](C)c3ccc([N+](=O)[O-])cc3)cc12 | 106 | 101 | 117 | 105 | 107 | 105 | 116 | 110 | 108 | 109 | 119 | 109 | 109 | 115 | 112 | 118 | 119 | 118 | 124 | 120 | 121 | 110 | 99.2 | 117 | 115 | 112 | 116 | 127 | 120 | 117 | 115 | 115 | 106
C[N]1C=C(C=N1)C2=C3\C=N/NC(=O)C4=C3C(=CC(=C4)NC(=O)[C@H](N)C5CCCCC5)[NH]2 | 87.7 | 56.3 | 85.5 | 101 | 79 | 90.8 | 68 | 58.3 | 36.5 | 20.7 | 11.6 | 101 | 67.1 | 94.4 | 99.2 | 92.9 | 103 | 81.3 | 50.8 | 34.5 | 22 | 8.73 | 79.8 | 50.8 | 95.1 | 86.2 | 89.5 | 90 | 59.3 | 42.2 | 25 | 15.4 | 7.21
OC[C@@H](O)[C@@H](O)[C@H](O)[C@@H](O)CO | 68.4 | 85.4 | 88.2 | 105 | 98.4 | 101 | 13.8 | 60 | 103 | 97 | 105 | 102 | 105 | 103 | 99.5 | 113 | 111 | 11.4 | 110 | 112 | 116 | 108 | 104 | 97.4 | 119 | 97.3 | 108 | 124 | 12.5 | 118 | 133 | 120 | 113
CC(C)OC(=O)/C1=C/N(CC(C)(C)C2=C1[NH]C3=CC=CC=C23)C(=O)C4=CC=C(F)C(=C4)F | 71.9 | 76 | 75.3 | 73.4 | 81 | 68.9 | 62 | 72.9 | 78.9 | 59.6 | 67.1 | 76.8 | 83.5 | 88.2 | 80.2 | 79.8 | 67.7 | 71.1 | 71.8 | 79.6 | 61.8 | 78.6 | 72.9 | 82 | 80 | 86 | 94.9 | 89 | 71.5 | 87.4 | 106 | 65.5 | 73.1
CCCCC(=O)O[C@]1(C(=O)CO)[C@H](C)C[C@H]2[C@@H]3CCC4=CC(=O)C=C[C@]4(C)[C@@]3(F)[C@@H](O)C[C@@]21C | 102 | 122 | 111 | 96.2 | 92.6 | 87.1 | 83.4 | 75.2 | 71 | 71.4 | 70.9 | 118 | 124 | 139 | 124 | 91.3 | 98.2 | 84.3 | 73.9 | 76.7 | 70.3 | 67.6 | – | – | – | – | – | – | – | – | – | – | –
COc1cc(F)c(F)c(Nc2ccc(I)cc2F)c1N[S+](=O)([O-])C1(C[C@H](O)CO)CC1 | 102 | 108 | 122 | 106 | 111 | 103 | 105 | 89.9 | 117 | 104 | 60.2 | 111 | 109 | 121 | 112 | 119 | 126 | 97.9 | 120 | 109 | 83.6 | 15.3 | 110 | 105 | 115 | 115 | 112 | 117 | 104 | 102 | 106 | 103 | 50.4
C[C@]12CCC(=O)C=C1CC[C@@H]1[C@@H]2[C@@H](O)C[C@@]2(C)[C@H]1CC[C@]2(O)C(=O)CO | 108 | 96.8 | 98.1 | 118 | 104 | 107 | 121 | 121 | 108 | 87.6 | 99.2 | 89.7 | 82.7 | 99.3 | 91.4 | 92.1 | 102 | 94.9 | 97 | 86.1 | 68.2 | 73.4 | 99.2 | 95 | 114 | 102 | 102 | 112 | 96.7 | 94.2 | 92.5 | 70 | 62.7
COC\1=C(/OC)C(=O)\C(=C(C)/C1=O)CCCCCCCCCCO | 97.8 | 92 | 92.4 | 120 | 119 | 132 | 133 | 99 | 119 | 112 | 90.8 | 109 | 109 | 127 | 105 | 132 | 136 | 124 | 112 | 136 | 123 | 90.6 | 122 | 129 | 123 | 115 | 129 | 125 | 137 | 113 | 141 | 98.6 | 68.3
CN[C@H]1CCC2=CC(=C(OC)C(=C2C/3=C/C=C(OC)\C(=O)/C=C13)OC)OC | 108 | 102 | 64.8 | 23 | 24.1 | 28.6 | 23.3 | 18.4 | 13.4 | 12 | 4.23 | 123 | 122 | 85 | 16.8 | 20.8 | 21.6 | 18 | 14.3 | 9.18 | 7.14 | 2.84 | 97.1 | 88.9 | 62.8 | 17.8 | 21.4 | 23.9 | 20.4 | 12.6 | 9.12 | 7.84 | 3.33
Nc1ncnc2c1ncn2[C@@H]1O[C@@H](CO)[C@H](O)[C@@H]1O | 93.8 | 90.1 | 111 | 119 | 124 | 117 | 109 | 109 | 115 | 118 | 62.4 | – | – | – | – | – | – | – | – | – | – | – | 106 | 105 | 116 | 112 | 130 | 144 | 121 | 123 | 123 | 84.9 | 50.2
C[C@](Cc1c[nH]c2ccccc12)(NC(=O)OC1C2CC3CC(C2)CC1C3)C(=O)NC[C@H](NC(=O)CCC(=O)O)c1ccccc1 (stereo partly drawn) | 88.1 | 87.3 | 112 | 106 | 124 | 129 | 121 | 123 | 116 | 126 | 120 | 96.8 | 82.8 | 110 | 121 | 105 | 149 | 148 | 135 | 128 | 125 | 132 | 113 | 91 | 121 | 126 | 118 | 137 | 134 | 142 | 136 | 168 | 123
CC1CNc2c(cccc2[S+](=O)([O-])N[C@@H](CCCNC(=N)N)C(=O)N2CC[C@@H](C)C[C@@H]2C(=O)O)C1 (stereo partly drawn) | 88 | 94.7 | 102 | 111 | 98.2 | 117 | 117 | 124 | 106 | 128 | 95.6 | 85.6 | 90 | 96.4 | 108 | 75.7 | 103 | 113 | 97.1 | 101 | 107 | 103 | 70 | 90.1 | 101 | 97 | 99.1 | 103 | 107 | 106 | 110 | 84.7 | 108
CCN1CCN(c2ccc(Nc3cc(N(C)C(=O)Nc4c(Cl)c(OC)cc(OC)c4Cl)ncn3)cc2)CC1 | 95 | 63.6 | 102 | 93.3 | 102 | 96.9 | 84.2 | 82.9 | 35.5 | 17 | 5.71 | 90.1 | 104 | 92.3 | 102 | 84.2 | 90.4 | 73.4 | 60.9 | 5.11 | 4.6 | 1.95 | 103 | 84 | 110 | 96 | 118 | 95.6 | 92.8 | 71.6 | 8.12 | 6.53 | 2.21
Cc1onc(-c2ccccc2Cl)c1C(=O)N[C@@H]1C(=O)N2[C@@H]1SC(C)(C)[C@@H]2C(=O)[O-] | 82.3 | 77.1 | 89.4 | 97.7 | 72 | 88.2 | 83.5 | 81.7 | 80.2 | 84.8 | 90 | 117 | 110 | 117 | 109 | 101 | 102 | 83.8 | 116 | 110 | 99.4 | 85.7 | 102 | 110 | 119 | 115 | 107 | 115 | 96.3 | 113 | 99.9 | 104 | 108

— the supplement of paper PMC11451515
